Columns and labels:
[1] = system: nitric oxide (NO), inducible nitric oxide synthase (iNOS), and cyclooxygenase-2 (COX-2); conditions: synthesized demethylated compounds compared with nobiletin per se; Non Patent Literature 3; cited from earlier work
Neuro2a = assay: Neurite elongation activity in Neuro2a neurocytes; assay type: cell-based; conditions: 20 μM, observed under microscope two days after addition, compared with comparative controls nobiletin and tangeretin
Protocol: The conversion compound 1, i.e., an isolated product of 4′-demethylnobiletin, and the conversion compound 2, i.e., an isolated product of 4′-demethyltangeretin, both obtained in Example 3 above were used to study neurite elongation activities. Neuro2a was used as a neurocyte.
First, Neuro2a cells were cultured in DMEM medium containing 10% fetal bovine serum (FBS) in a 37° C. incubator with 5% CO2. The cells were subcultured every three days.
Then, the cells were inoculated in a 24′-well cell culture plate at 2×10^4/well using DMEM medium containing 5% FBS. Three hours after subculture, various test samples were added each at a concentration of 20 μM. 4′-demethylnobiletin (the product in Example 3), 4′-demethyltangeretin (the product in Example 3), nobiletin (a comparative control), and tangeretin (a comparative control) dissolved in ethanol were used as the test samples. As a control, only ethanol was used.
Then, two days after addition of the various test samples, neurite elongation activities were observed under microscope. FIG. 4 show picture images for comparing the neurite elongation activities exerted by the various test samples in cultures.

COc1ccc(-c2cc(=O)c3c(OC)c(OC)c(OC)c(OC)c3o2)cc1O [3′-demethylnobiletin]
effect of preventing development of cancer by suppressing synthesis of NO, iNOS and COX-2 [1]: drastically higher effect than nobiletin

COc1c(OC)c(OC)c2c(=O)cc(-c3ccc(O)cc3)oc2c1OC [4′-demethyltangeretin]
neurite elongation activity (Neuro2a): significant neurite elongation activities

COc1c(OC)c(OC)c2c(=O)cc(-c3ccc(O)c(O)c3)oc2c1OC [3′,4′-didemethylnobiletin]
effect of preventing development of cancer by suppressing synthesis of NO, iNOS and COX-2 [1]: drastically higher effect than nobiletin

COc1cc(-c2cc(=O)c3c(OC)c(OC)c(OC)c(OC)c3o2)ccc1O [4′-demethylnobiletin]
effect of preventing development of cancer by suppressing synthesis of NO, iNOS and COX-2 [1]: drastically higher effect than nobiletin
neurite elongation activity (Neuro2a): significant neurite elongation activities
